Test results published in US10239887B2, “Positive allosteric modulators of the muscarinic acetylcholine receptor M4” (Vanderbilt University, priority 2016, dated 2019).
Structures can show the parent of a compound that is named as a salt. Where two headings read alike, the source gives them in different places.

Molecular target: T1, human mAChR M4 (Homo sapiens, UniProt P08173)
T1 sequence (P08173 1-479): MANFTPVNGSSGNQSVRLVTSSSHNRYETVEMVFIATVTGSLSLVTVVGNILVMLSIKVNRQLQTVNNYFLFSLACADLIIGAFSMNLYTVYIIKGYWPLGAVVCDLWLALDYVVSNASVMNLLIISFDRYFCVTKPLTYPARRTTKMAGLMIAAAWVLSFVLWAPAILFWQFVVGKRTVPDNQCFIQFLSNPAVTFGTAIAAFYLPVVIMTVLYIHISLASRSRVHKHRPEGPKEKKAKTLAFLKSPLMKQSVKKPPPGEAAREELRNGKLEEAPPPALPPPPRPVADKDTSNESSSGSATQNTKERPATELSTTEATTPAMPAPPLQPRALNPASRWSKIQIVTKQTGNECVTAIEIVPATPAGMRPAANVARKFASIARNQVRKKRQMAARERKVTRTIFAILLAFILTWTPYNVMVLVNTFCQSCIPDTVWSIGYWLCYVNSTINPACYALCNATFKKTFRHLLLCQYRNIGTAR
Test: mAChR M4 cell-based functional assay (calcium flux), human M4

[1] = Human M4, % ACh maximum at 30 μM
[2] = Human M4 EC50 (nM), Table 10, calcium flux, PAM activity with EC20 acetylcholine
[3] = Table 10, % ACh maximum at 30 μM
[4] = Human M4 EC50 (nM), Table 10, unit μM (bounds)
[5] = Human M4 EC50, CHO-K1 hM4-Gqi5 cells, calcium flux, increase in EC20 acetylcholine response
[6] = Table 11, % ACh maximum at 30 μM
[7] = Human M4 EC50 (nM), Table 11, calcium flux, PAM activity with EC20 acetylcholine

Structure (SMILES) | EC50 [2] [nM] | Emax [3] [%] | also measured
Cc1nnc2oc3c(NC4CCC4)ncnc3c2c1C [Compound 69, N-cyclobutyl-3,4-dimethyl-pyrimido [4′,5′:4,5]furo[2,3-c]pyridazin-8-amine] | – | – | Emax [1]: 54.8%
Cc1nnc2sc3c(NCc4ccc(C(=O)N5CCCCC5)cc4)ncnc3c2c1C [Compound 125, [4-[[(3,4-dimethylpyrimido [4′,5′:4,5]thieno[2,3-c]pyridazin-8-yl)amino]methyl]phenyl]-(1-piperidyl)methanone] | 574 | 93.1 | –
Cc1nnc2oc3c(NC4CC5(COC5)C4)ncnc3c2c1C [Compound 305, 3,4-dimethyl-N-(2-oxaspiro[3.3]heptan-6-yl)pyrimido[4′,5′:4,5] furo[2,3-c]pyridazin-8-amine] | – | 25.6 | EC50 [4]: > 10000 nM
Cc1nnc2sc3c(N4CCC(c5ccccc5)C4)ncnc3c2c1C (stereo not shown) [Compound 28, 3,4-dimethyl-8-(3-phenylpyrrolidin-1-yl) pyrimido[4′,5′:4,5]thieno [2,3-c]pyridazine] | – | – | Emax [1]: 49%
Cc1c(Cl)cnc2sc3c(N4CCC(F)(F)C4)ncnc3c12 [Compound 216, 8-chloro-4-(3,3-difluoropyrrolidin-1-yl)-9-methyl-pyrido [3′,2′:4,5]thieno[3,2-d] pyridimidine] | 685 | 52.4 | –
Cc1nnc2oc3c(NC4CC4)ncnc3c2c1C [Compound 68, N-cyclopropyl-3,4-dimethyl-pyrimido [4′,5′:4,5]furo[2,3-c]pyridazin-8-amine] | – | – | Emax [1]: 66.5%; EC50 [5]: 1310 nM
Cc1nnc2sc3c(NC4CC5(C4)CN(c4ncc(Cl)cc4F)C5)ncnc3c2c1C [Compound 164, N-[2-(5-chloro-3-fluoro-2-pyridyl)-2-azaspiro [3.3]heptan-6-yl]-3,4-dimethyl-pyrimido [4′,5′:4,5]thieno[2,3-c] pyridazin-8-amine] | 3500 | 22.7 | –
Cc1cc(CNc2ncnc3c2sc2nnc(C)c(C)c23)ccc1C(C)(C)O [Compound 334, 2-[4-[[(3,4-dimethylpyrimido [4′,5′:4,5]thieno[2,3-c]pyridazin-8-yl)amino]methyl]-2-methyl-phenyl]propan-2-ol] | – | – | Emax [6]: 90.6%
Cc1nnc2oc3c(NC4CCC4)ncnc3c2c1C [Compound 303, N-cyclobutyl-3,4-dimethyl-pyrimido [4′,5′:4,5]furo[2,3-c]pyridazin-8-amine] | 1530 | 54.8 | –
Cc1nnc2sc3c(NCc4cccc(-n5cccn5)c4)ncnc3c2c1C [Compound 328, 3,4-dimethyl-N-[(3-pyrazol-1-ylphenyl)methyl]pyrimido [4′,5′:4,5]thieno[2,3-c] pyridazin-8-amine] | – | – | EC50 [7]: 1970 nM; Emax [6]: 63.6%
CCNc1ncnc2c1oc1nc(C)c(Cl)c(C)c12 [Compound 47, 8-chloro-N-ethyl-7,9-dimethyl-pyrido[3′,2′:4,5]furo[3,2-d]pyrimidin-4-amine hydrochloride] | – | – | Emax [1]: 40.6%; EC50 [5]: 1250 nM
Cc1nnc2sc3c(N4CC[C@H](Oc5ccccn5)C4)ncnc3c2c1C [Compound 359, 3,4-dimethyl-8-[(3S)-3-(2-pyridyloxy)pyrrolidin-1-yl]pyrimido[4′,5′:4,5]thieno[2,3-c]pyridazine dihydrochloride] | – | – | EC50 [7]: 488 nM; Emax [6]: 31.8%
Cc1nnc2sc3c(N4CC5(CNC5)C4)ncnc3c2c1C [Compound 105, 8-(2,6-diazaspiro[3.3]heptan-2-yl)-3,4-dimethyl-pyrimido [4′,5′:4,5]thieno[2,3-c] pyridazine] | 627 | – | Emax: 55.6%
Cc1nnc2sc3c(N4CC[C@@H](Oc5ccnc(C(F)(F)F)c5)C4)ncnc3c2c1C [Compound 337, 3,4-dimethyl-8-[(3R)-3-[[2-(trifluoromethyl)-4-pyridyl]oxy]pyrrolidin-1-yl]pyrimido[4′,5′:4,5] thieno[2,3-c]pyridazine] | – | – | EC50 [7]: 116 nM; Emax [6]: 80.2%
CC(=O)NC1CN(c2ncnc3c2sc2nnc(C)c(C)c23)C1 [Compound 96, N-[1-(3,4-dimethylpyrimido [4′,5′:4,5]thieno[2,3-c]pyridazin-8-yl)azetidin-3-yl]acetamide] | 830 | 60.3 | –
Cc1c(Cl)cnc2sc3c(NCc4ccc(S(C)(=O)=O)cc4)ncnc3c12 [Compound 237, 8-chloro-9-methyl-N-[(4-methylsulfonylphenyl)methyl]pyrido [3′,2′:4,5]thieno[3,2-d] pyrimidin-4-amine dihydrochloride] | 1320 | 54.5 | –
Cc1nnc2sc3c(NC45CC(F)(C4)C5)ncnc3c2c1C [Compound 139, N-(3-fluoro-1-bicyclo [1.1.1]pentanyl)-3,4-dimethyl-pyrimido [4′,5′:4,5]thieno[2,3-c]pyridazin-8-amine] | 422 | 67.6 | –
Cc1nnc2sc3c(N4CC[C@H](Oc5cnccn5)C4)ncnc3c2c1C [Compound 361, 3,4-dimethyl-8-[(3S)-3-pyrazin-2-yloxypyrrolidin-1-yl]pyrimido[4′,5′:4,5] thieno[2,3-c]pyridazine dihydrochloride] | – | – | EC50 [7]: 1470 nM; Emax [6]: 53.9%

More lines, main results first:

EC50 [2] [nM] | Emax [3] [%] | Structure (SMILES) | also measured
3130 | 61.8 | Cc1nnc2sc3c(NCc4ccc(OCC5CC5)c(F)c4)ncnc3c2c1C [Compound 91, N-[[4-(cyclopropylmethoxy)-3-fluoro-phenyl]methyl]-3,4-dimethyl-pyrimido [4′,5′:4,5]thieno[2,3-c] pyridazin-8-amine] | –
1660 | 55.5 | Cc1nc2sc3c(NC4CCC4)ncnc3c2c(C)c1Cl [Compound 266, 8-chloro-N-cyclobutyl-7,9-dimethyl-pyrido [3′,2′:4,5]thieno[3,2-d] pyrimidin-4-amine hydrochloride] | –
– | 73.8 | Cc1nnc2sc3c(NCc4ccc(C(C)(O)C(F)(F)F)cc4)ncnc3c2c1C (stereo not shown) [Compound 113, 2-[4-[[(3,4-dimethylpyrimido [4′,5′:4,5]thieno[2,3-c]pyridazin-8-yl)amino]methyl]phenyl]-1,1,1-trifluoro-propan-2-ol] | –
3210 | 90.8 | Cc1nnc2sc3c(NCc4ccc(-c5cccs5)cc4)ncnc3c2c1C [Compound 190, 3,4-dimethyl-N-[[4-(2-thienyl)phenyl]methyl] pyrimido[4′,5′:4,5]thieno [2,3-c]pyridazin-8-amine] | –
– | 33.6 | COc1ccc(CNc2ncnc3c2sc2nc(C)c(Cl)c(C)c23)cc1OC [Compound 267, 8-chloro-N-[(3,4-dimethoxyphenyl)methyl]-7,9-dimethyl-pyrido[3′,2′:4,5]thieno [3,2-d]pyrimidin-4-amine hydrochloride] | EC50 [4]: > 10000 nM
687 | 86.8 | COCCNC(=O)c1cc(CNc2ncnc3c2sc2nnc(C)c(C)c23)ccc1F [Compound 186, 5-[[(3,4-dimethylpyrimido [4′,5′:4,5]thieno[2,3-c]pyridazin-8-yl)amino]methyl]-2-fluoro-N-(2-methoxyethyl)benzamide] | –
1160 | 96.5 | Cc1nnc2sc3c(NCc4ccc(F)c(C(=O)NC5CC5(C)C)c4)ncnc3c2c1C (stereo not shown) [Compound 181, N-(2,2-dimethylcyclopropyl)-5-[[(3,4-dimethylpyrimido [4′,5′:4,5]thieno[2,3-c]pyridazin-8-yl)amino]methyl]-2-fluoro-benzamide] | –
